Laboratory results published in patent publication US20140220552A1, “BLOOD COLLECTION DEVICES CONTAINING CONTACT PATHWAY INHIBITION ADDITIVES” (Becton, Dickinson and Company, priority 2013, published 2014).
“Also recorded” adds a separate entry of the source.

Legend:
TF coagulation pathway = test: PT assay in plasma (high dose tissue factor); format: biochemical, human; conditions: for thrombin generation in tests that monitor the TF coagulation pathway exclusively: identical samples as aPTT, FIG. 6 lower panels; for PT clotting time result: plasma containing inhibitor, FIG. 6
Text: (§1) FIG. 6 was obtained by performing matched aPTT, PT, and TT assays from plasma containing various inhibitors. These assays are well known to those skilled in the art and are not described in great detail here. […] Corn trypsin inhibitor (CTI) was included as a control since it is the factor XIIa inhibitor currently available in a blood collection tube.
This verifies that aprotinin exclusively suppresses thrombin formation through the contact coagulation pathway but not through the TF pathway.

[1] = test system: contact coagulation pathway; test: activated partial thromboplastin time (aPTT) assay in plasma; format: biochemical, human; conditions: plasma containing inhibitor, FIG. 6, anti-FXI antibody at 7.5 μg/mL
Text: as §1
(§2) Citrated human WB is transferred from a blood collection bag into coated (siliconized) glass or plastic blood collection tubes, or uncoated glass, polypropylene (PP), polystyrene (PS), or polyethylene terephthalate (PET) conical bottom tubes, either alone or in the presence of inhibitors targeting kallikrein (e.g. aprotinin) or FXIa (e.g. anti-human Factor XI antibody). After 15 minutes incubation, the TEG R value is obtained immediately after addition of 10 mM CaCl2. Matched plasma specimens are analyzed by the CAT in the presence and absence of 1 picomolar Tissue Factor (TF) and by activated partial thromboplastin time (APTT; Stago Compact). Data are analyzed by ANOVA with Tukey's post-test and by linear regression.

[2] = sterilization stability of the additive in a blood collection tube; format: physicochemical
Text: FIG. 7 provides a comparison of kallikrein, factor XIIa, and factor IX inhibition for the purposes of mitigating contact pathway contributions to thrombin generation.
An advantage of using aprotinin over CTI or anti-Factor XI antibody is that neither of the latter two inhibitors can be present in a tube that has been sterilized.

thrombin = test: TT assay in plasma (exogenous thrombin); format: biochemical, human; conditions: plasma containing inhibitor, FIG. 6
Text: as §1

[3] = test system: contact coagulation pathway; test: Thrombelastography (TEG) citrated-native whole blood clotting time (R time) after recalcification; format: biochemical, human
Method: FIGS. 2A and 2B are a table and chart comparing recalcified clotting times for tubes made from various materials using a Thrombelastograph® (TEG) 5000 Hemostasis Analyzer. […] Briefly, BD Vacutainer® 369714 glass and 363083 plastic citrate tubes were washed and dried to remove the citrate additive. Afterwards, tubes were filled to capacity using a commercial bag of citrated human whole blood. Samples were incubated for 15 minutes at room temperature with gentle rocking to promote blood contact with the surface material of the tube wall. Finally, the whole blood clotting time was measured using combined recalcification and TEG. […] Furthermore, it is important to note that only highly sensitive coagulation assays that are performed in the absence of a strong contact pathway activator will be sensitive to these differences.
The titration was performed by evaluating whole blood clotting time (TEG R time). A minimally effective dose was determined at 1000 kallikrein inhibitor units (1000 KIU) per mL of blood as concentrations below that only provided mean clotting times that were either equivalent or lower to that of siliconized glass.
The titration was performed by evaluating whole blood clotting time (TEG R time).
as §2
As shown in FIG. 4(A) various concentrations of aprotinin were used in tests to determine the impact on whole blood clotting time using TEG. […]

thrombin generation = test: Calibrated Automated Thrombogram (CAT) thrombin generation assay in citrated plasma; format: biochemical, human
Text: FIGS. 3A and 3B is a table and chart comparing thrombin generation from citrated plasma obtained from tubes made of various materials using the Calibrated Automated Thrombogram (CAT) assay. The CAT assay, rather than measuring coagulation, combines the use of a fluorogenic substrate that is cleaved in the presence of thrombin as well as a calibrator to provide a quantitative measurement of thrombin generation in a recalcified plasma sample. The predominant use of this assay is to examine the thrombin generation profile of a clinical research sample in response to tissue factor (TF). […] The charts contained in FIG. 3B provide example thrombin generation curves that were used to populate the data table in FIG. 3A.
as §2, with “After 15 minutes incubation, the TEG R value is obtained immediately after addition of 10 mM CaCl2.” left out, “regression. […]” for “regression.”

Substance	thrombin generation in tests that monitor the TF coagulation pathway exclusively (TF coagulation pathway)	PT clotting time result (TF coagulation pathway)	aPTT result [1]	aPTT result ([1]; listed as Aprotinin)	sterilization stability [2]	TT clotting time result (thrombin)	whole blood clotting time (TEG R time) ([3]; 2000 KIU/mL aprotinin, blood in uncoated glass, compared with siliconized glass or plastic)	minimally effective dose by whole blood clotting time (TEG R time) ([3]; aprotinin titration in citrated blood, lower concentrations gave clotting times equivalent or lower to siliconized glass)	aprotinin concentration mitigating the contact coagulation pathway in uncoated glass tubes to a level equivalent to siliconized glass or plastic tubes ([3]; citrated blood in uncoated glass tubes, TEG) [KIU/mL]	mitigation of contact pathway contributions to thrombin generation (CAT) (thrombin generation; glass and plastic citrate tubes, FIG. 7)	thrombin generation (CAT), effect of increasing aprotinin (thrombin generation; siliconized glass and plastic tubes, FIG. 4B)
aprotinin	unaffected	none of the inhibitors produced prolonged PT or TT assays	equivalent to or greater than the time to generate thrombin in the presence of CTI and anti-Factor XI antibody	dose dependent effect	sterilization stable	none of the inhibitors produced prolonged PT or TT assays	longer clotting times than that of blood stored in either siliconized glass or plastic	1000 KIU per mL of blood	≥ 1000	robustly diminished; also recorded: equivalent to that of CTI and anti-Factor XI antibody	delays and reduces thrombin generation in a dose dependent fashion; also recorded: thrombin generation is decreased and delayed
Corn trypsin inhibitor [CTI]	unaffected	none of the inhibitors produced prolonged PT or TT assays	Equivalent inhibition			none of the inhibitors produced prolonged PT or TT assays					
